Assay results: the NIST ThermoML archive (doi:10.1016/j.fluid.2016.11.022)
± gives the expanded uncertainty stated by the source.

Experiments:
[1] = Liquid; for self diffusion coefficient: NMR
[2] = xn = mol fraction of the nth substance listed; settings: 343.15 K, Liquid; for viscosity: Oscillating piston [Cambridge Applied Systems Model]; for molar volume: High-pressure cell with syringe pump

SMILES: CCCCCC[n+]1ccn(C)c1.O=S(=O)([N-]S(=O)(=O)C(F)(F)F)C(F)(F)F
- self diffusion coefficient ([1]; 298.15 K, 100 kPa): 1.79e-11 m2/s
- self diffusion coefficient ([1]; 323.15 K, 100 kPa): 5.54e-11 m2/s
- self diffusion coefficient ([1]; 343.15 K, 100 kPa): 1.07e-10 m2/s
- viscosity ([1]; 343.15 K, 100 kPa, Oscillating piston [Cambridge Applied Systems Model]): 14.07 ± 0.35 mPa·s

SMILES: CCCCCC[n+]1ccn(C)c1.O=S(=O)([N-]S(=O)(=O)C(F)(F)F)C(F)(F)F + FCC(F)(F)F
- viscosity ([2]; 100 kPa, x2 = 0): 14.07 ± 0.35 mPa·s

SMILES: FCC(F)(F)F [1,1,1,2-tetrafluoroethane]
- self diffusion coefficient ([1]; 298.15 K, 670 kPa): 5.95e-09 m2/s

SMILES: FCC(F)(F)F [1,1,1,2-tetrafluoroethane] + CCCCCC[n+]1ccn(C)c1.O=S(=O)([N-]S(=O)(=O)C(F)(F)F)C(F)(F)F
- molar volume ([2]; 84 kPa, x1 = 0.0397): 0.0003358 ± 3.2e-06 m3/mol
- molar volume ([2]; 212 kPa, x1 = 0.1086): 0.0003159 ± 2.8e-06 m3/mol
- viscosity ([2]; 310 kPa, x1 = 0.148): 12.62 ± 0.31 mPa·s
- molar volume ([2]; 395 kPa, x1 = 0.1956): 0.0002928 ± 2.6e-06 m3/mol
- viscosity ([2]; 610 kPa, x1 = 0.276): 11.97 ± 1.3 mPa·s
- molar volume ([2]; 615 kPa, x1 = 0.2904): 0.0002669 ± 2.2e-06 m3/mol
- viscosity ([2]; 850 kPa, x1 = 0.364): 9.33 ± 1.6 mPa·s
- molar volume ([2]; 971 kPa, x1 = 0.4272): 0.0002313 ± 1.8e-06 m3/mol
- viscosity ([2]; 1130 kPa, x1 = 0.459): 8.09 ± 0.18 mPa·s
- molar volume ([2]; 1320 kPa, x1 = 0.5508): 0.0001984 ± 1.4e-06 m3/mol
- viscosity ([2]; 1470 kPa, x1 = 0.575): 7.06 ± 0.3 mPa·s
- molar volume ([2]; 1732 kPa, x1 = 0.6867): 0.0001653 ± 1e-06 m3/mol
- molar volume ([2]; 1956 kPa, x1 = 0.777): 0.0001436 ± 8e-07 m3/mol
- molar volume ([2]; 2016 kPa, x1 = 0.8075): 0.0001367 ± 6e-07 m3/mol
- viscosity ([2]; 2030 kPa, x1 = 0.813): 3.24 ± 0.07 mPa·s
- molar volume ([2]; 2064 kPa, x1 = 0.8427): 0.0001289 ± 6e-07 m3/mol
- molar volume ([2]; 2075 kPa, x1 = 0.8572): 0.0001265 ± 4e-07 m3/mol
